Source: patent US20240300893A1, “SMALL MOLECULE COMPOUNDS TARGETING SRSF6 PROTEIN AND THEIR PREPARATION METHODS AND APPLICATIONS” (CHINA PHARMACEUTICAL UNIVERSITY, priority 2021, published 2024)
Where two headings read alike, the source gives them in different places.

Experiments:
SRSF6 protein = target: T1, SRSF6 protein (Homo sapiens, UniProt Q13247); assay: SRSF6 protein thermal shift assay; assay type: binding; settings: for migration of SRSF6 protein compared with DMSO: in words
T1 sequence (Q13247 1-183): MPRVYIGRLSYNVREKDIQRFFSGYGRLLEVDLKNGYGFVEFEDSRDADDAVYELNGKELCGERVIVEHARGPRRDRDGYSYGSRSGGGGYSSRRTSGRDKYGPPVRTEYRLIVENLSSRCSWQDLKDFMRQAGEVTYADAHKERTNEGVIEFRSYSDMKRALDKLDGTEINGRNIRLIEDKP
Description: SRSF proteins play an important role in the regulation of gene expression, including constitutive splicing, alternative splicing, mRNA nuclear export and translation. SRSF proteins can be divided into two groups according to the number of RRM domains. Among them, SRSF6 has RRM1 and RRM2 domains. The RRM1 domain contains conserved sequences of RNP-1 and RNP-2, which can bind to related mRNAs. However, the RRM2 domain contains the evolutionarily conserved SWQDLKD heptapeptide sequence. RRM1 and RRM2 domains play irreplaceable roles in the specific recognition of alternative splice sites. Overexpression of SRSF6 induced colorectal carcinogenesis by binding to cell adhesion factor ZO-1, while indacaterol was validated to inhibit tumor development. Therefore, RRM1 and RRM2 domains of SRSF6 were extracted and the binding ability of compound I1 to SRSF6 was investigated by protein thermal shift assay using LYW1 as a reference.
We used DMSO as the blank group, and 56.5 μM SRSF6 protein was added to the PCR tube with LYW1 and I1 at a concentration of 1:10, respectively. After TS dye was added in the dark, the thermal migration assay was performed.

SW620 cells = assay: Inhibitory effect on SW620 cells (cell survival rate at 48 h); assay type: cell-based; settings: read-out: IC50, inhibitory effects on SW620 cells
Method: (§1) Compound I was prepared with the same concentration gradient for primary screening, and compounds with lower IC50 than indacaterol were screened for secondary screening with concentration gradients of 1, 2, 4, and 8 μM.
(§2) Both rounds of screening were performed on the colorectal cancer cell line SW620 with an initial cell number of 5000 cells per well, and the cell survival rate at 48 h was determined directly to determine the IC50 of the compound.
(§3) Cell viability=[(reading of experimental group−reading of blank group)/(reading of control group−reading of blank group)]×100%.

RKO cells = assay: Inhibitory effect on RKO cells (cell survival rate at 48 h); assay type: cell-based, Human; settings: procedures as for SW620, 48 h, read-out: IC50, inhibitory effects on RKO cells
Method: as §1, §2, §3

HT29 cells = assay: Inhibitory effect on HT29 cells (cell survival rate at 48 h); assay type: cell-based, Human; settings: HT29, procedures as for SW620, 48 h, read-out: IC50, inhibitory effects on HT29 cells
Method: as §1, §2, §3

[1] = Homo sapiens, SW-620, 48 h, SW620, 5000 cells per well

Row | Compound | IC50 (SW620 cells; [1]) [µM] | IC50 (RKO cells; Homo sapiens, 48 h) [µM] | IC50 (HT29 cells; Homo sapiens, HT-29, 48 h) [µM] | other results
1 | CCc1cc2c(cc1CC)CC(NC[C@@H](O)c1ccc(OCc3ccc(F)cc3)c3[nH]c(=O)ccc13)C2 [Compound I1, (S)-5-(2-((5,6-diethyl-2,3-dihydro-1H-inden-2-yl)amino)-1-hydroxyethyl)-8-((4-fluorobenzyl)oxy)quinolin-2(1H)-one] |  |  |  | binding effect with SRSF6 protein (SRSF6 protein; compared with LYW1, in words): better binding effect; migration of SRSF6 protein compared with DMSO (SRSF6 protein): negative migration; IC50 (SW620 cells; Homo sapiens, SW-620, SW620, 5000 cells per well): 3.12 µM; IC50 (RKO cells; Homo sapiens): 1.42 µM; IC50 (HT29 cells; Homo sapiens, HT-29): 1.42 µM
2 | CCc1cc2c(cc1CC)CC(NC[C@@H](O)c1ccc(OCc3cc(F)cc(F)c3)c3[nH]c(=O)ccc13)C2 [Compound I9, (S)-5-(2-((5,6-diethyl-2,3-dihydro-1H-inden-2-yl)amino)-1-hydroxyethyl)-8-((3,5-difluorobenzyl)oxy)quinolin-2(1H)-one] | 3.15 |  |  | 
3 | CCc1cc2c(cc1CC)CC(NC[C@H](O)c1ccc(O)c3[nH]c(=O)ccc13)C2 [Indacaterol, reference compound] | 20 to 25 | 10 to 15 | 10 to 15 | IC50 (SW620 cells; SW620, 5000 cells per well): 23.1 µM; IC50 (RKO cells): 12.8 µM; IC50 (HT29 cells): 12.7 µM
4 | CCc1cc2c(cc1CC)CC(NC[C@H](O)c1ccc(OCc3cccc(F)c3)c3[nH]c(=O)ccc13)C2 [Compound I7, (R)-5-(2-((5,6-diethyl-2,3-dihydro-1H-inden-2-yl)amino)-1-hydroxyethyl)-8-((3-fluorobenzyl)oxy)quinolin-2(1H)-one] | 2.73 | 3.11 | 2.66 | 
5 | CCc1cc2c(cc1CC)CC(NC[C@@H](O)c1ccc(OCc3ccc(F)c(F)c3)c3[nH]c(=O)ccc13)C2 [Compound I10, (S)-5-(2-((5,6-diethyl-2,3-dihydro-1H-inden-2-yl)amino)-1-hydroxyethyl)-8-((3,4-difluorobenzyl)oxy)quinolin-2(1H)-one] | 4.18 |  |  | 
6 | CCc1cc2c(cc1CC)CC(NC[C@@H](O)c1ccc(OCc3ccc(C)cc3)c3[nH]c(=O)ccc13)C2 [Compound I4, (S)-5-(2-((5,6-diethyl-2,3-dihydro-1H-inden-2-yl)amino)-1-hydroxyethyl)-8-((4-methylbenzyl)oxy)quinolin-2(1H)-one] | 2.9 |  |  | 
7 | CCc1cc2c(cc1CC)CC(NC[C@H](O)c1ccc(OCc3ccc(F)cc3)c3[nH]c(=O)ccc13)C2 [Compound I2, (R)-5-(2-((5,6-diethyl-2,3-dihydro-1H-inden-2-yl)amino)-1-hydroxyethyl)-8-((4-fluorobenzyl)oxy)quinolin-2(1H)-one] | 8.62 | 5.56 | 4.69 | 
8 | CCc1cc2c(cc1CC)CC(NC[C@@H](O)c1ccc(OCc3cccc(F)c3)c3[nH]c(=O)ccc13)C2 [Compound I6, (S)-5-(2-((5,6-diethyl-2,3-dihydro-1H-inden-2-yl)amino)-1-hydroxyethyl)-8-((3-fluorobenzyl)oxy)quinolin-2(1H)-one] | 3.06 |  |  | 
9 | CCc1cc2c(cc1CC)CC(NC[C@@H](O)c1ccc(OCc3c(F)c(F)c(F)c(F)c3F)c3[nH]c(=O)ccc13)C2 [Compound I11, (S)-5-(2-((5,6-diethyl-2,3-dihydro-1H-inden-2-yl)amino)-1-hydroxyethyl)-8-((perfluorophenyl)methoxy)quinolin-2(1H)-one] | 6.09 |  |  | 
10 | CCc1cc2c(cc1CC)CC(NC[C@H](O)c1ccc(OCc3ccc(C)cc3)c3[nH]c(=O)ccc13)C2 [Compound I5, (R)-5-(2-((5,6-diethyl-2,3-dihydro-1H-inden-2-yl)amino)-1-hydroxyethyl)-8-((4-methylbenzyl)oxy)quinolin-2(1H)-one] | 2.98 |  |  | 
11 | CCc1cc2c(cc1CC)CC(NC[C@H](O)c1ccc(OCc3ccccc3)c3[nH]c(=O)ccc13)C2 [LYW1, reference compound] | 3.54 | 2.03 | 2.43 | migration of SRSF6 protein compared with DMSO (SRSF6 protein): negative migration
